Read-outs that look alike come from different tables or passages of the source.
Target: [35S]-TBPS binding, rat brain cortical membranes
Assay: Steroid inhibition of [35S]-TBPS binding
Details: in the presence of 5 mM GABA
Procedure: [35S]-t-Butylbicyclophosphorothionate (TBPS) binding assays using rat brain cortical membranes in the presence of 5 mM GABA has been described (Gee et al, J. Pharmacol. Exp. Ther. 1987, 241, 346-353; Hawkinson et al, Mol. Pharmacol. 1994, 46, 977-985; Lewin, A. H et al., Mol. Pharmacol. 1989, 35, 189-194).
Briefly, cortices are rapidly removed following decapitation of carbon dioxide-anesthetized Sprague-Dawley rats (200-250 g). The cortices are homogenized in 10 volumes of ice-cold 0.32 M sucrose using a glass/teflon homogenizer and centrifuged at 1500×g for 10 min at 4° C. The resultant supernatants are centrifuged at 10,000×g for 20 min at 4° C. to obtain the P2 pellets. The P2 pellets are resuspended in 200 mM NaCl/50 mM Na—K phosphate pH 7.4 buffer and centrifuged at 10,000×g for 10 min at 4° C. This washing procedure is repeated twice and the pellets are resuspended in 10 volumes of buffer. Aliquots ([…]) of the membrane suspensions are incubated with 3 nM [^35S]-TBPS and […] aliquots of test drug dissolved in dimethyl sulfoxide (DMSO) (final 0.5%) in the presence of 5 mM GABA. The incubation is brought to a final volume of 1.0 mL with buffer. Nonspecific binding is determined in the presence of […] and ranged from 15 to 25%. Following a 90 min incubation at room temp, the assays are terminated by filtration through glass fiber filters (Schleicher and Schuell No. 32) using a cell harvester (Brandel) and rinsed three times with ice-cold buffer. Filter bound radioactivity is measured by liquid scintillation spectrometry. Non-linear curve fitting of the overall data for each drug averaged for each concentration is done using Prism (GraphPad). […] The concentration of test compound producing 50% inhibition (IC50) of specific binding and the maximal extent of inhibition (Imax) are determined for the individual experiments with the same model used for the overall data and then the means±SEM.s of the individual experiments are calculated.
Various compounds are or can be screened to determine their potential as modulators of [^35S]-TBPS binding in vitro. These assays are or can be performed in accordance with the above

[1] = Table 5, 3 nM [35S]-TBPS, read-out: TBPS IC50
[2] = Table 4, 3 nM [35S]-TBPS, read-out: TBPS IC50

SMILES | IC50 [1] | IC50 [2] | also measured
CC[C@]12CC[C@@](C)(O)C[C@H]1CC[C@H]1[C@@H]3CC[C@H](C(=O)Cn4nnc(C)n4)[C@H]3CC[C@@H]12 [Example 83, 1-((3R,5R,8S,9S,10S,13S,14S,17S)-10-ethyl-3-hydroxy-3-methylhexadecahydro-1H-cyclopenta[a]phenanthren-17-yl)-2-(5-methyl-2H-tetrazol-2-yl)ethanone] | < 100 nM |  | 
C[C@@]1(O)CCC[C@@]2(C)[C@H](CC[C@@H]3[C@@H]2CC[C@]2(C)[C@H](C(=O)Cn4cc(C#N)cn4)CCCC[C@@H]32)C1 [Example 61, 1-(2-((1R,5aS,5bR,7aR,9R,12aS,12bS,14aS)-9-hydroxy-9,12a,14a-trimethylicosahydrodicyclohepta[a,f]naphthalen-1-yl)-2-oxoethyl)-1H-pyrazole-4-carbonitrile] |  | 100 to 1000 nM | 
CC(=O)[C@@H]1CCC[C@H]2[C@@H]3CC[C@@H]4C[C@](C)(O)CC[C@@H]4[C@H]3CC[C@@H]21 [Example 75, 1-((1R,4aS,4bR,6aR,8R,10aS,10bR,12aS)-8-hydroxy-8-methyloctadecahydrochrysen-1-yl)-ethanone] | > 1000 nM |  | 
C[C@]1(O)CC[C@@H]2CC[C@@H]3[C@H](CC[C@]4(C)[C@@H](C(=O)Cn5cc(C#N)cn5)CCC[C@@H]34)[C@@]2(C)CC1 [Example 44, 1-(2-((1S,4aS,4bR,6aS,9S,11aS,11bS,13aS)-9-hydroxy-9,11a,13a-trimethyloctadecahydro-1H-cyclohepta[a]phenanthren-1-yl)-2-oxoethyl)-1H-pyrazole-4-carbonitrile] |  | 100 to 1000 nM | 
CC[C@]12CC[C@@](C)(O)C[C@H]1CC[C@H]1[C@@H]3CCCC[C@@H](C(=O)Cn4cc(C#N)cn4)[C@@]3(C)CC[C@@H]12 [Example 21] |  | 100 to 1000 nM | 
CC[C@]12CCCC(C)(O)C[C@H]1CC[C@H]1[C@@H]3CC[C@H](C(=O)Cn4cc(C#N)cn4)[C@@]3(C)CC[C@@H]12 (stereo in doubt) [Example 20, 1-(2-((1S,3aS,3bS,5aR,7S,10aS,10bS,12aS)-10a-ethyl-7-hydroxy-7,12a-dimethyloctadecahydrocyclohepta[a]cyclopenta[f]naphthalen-1-yl)-2-oxoethyl)-1H-pyrazole-4-carbonitrile] |  | < 100 nM | 
C[C@]1(O)CCC2=CC[C@H]3[C@@H]4CCC[C@H](C(=O)Cn5cc(C#N)cn5)[C@@]4(C)CC[C@@H]3[C@@]2(C)CC1 [Example 58, 1-(2-((1S,4aS,4bS,9S,11aR,11bS,13aS)-9-hydroxy-9,11a,13a-trimethyl-2,3,4,4a,4b,5,7,8,9,10,11,11a,11b,12,13,13a-hexadecahydro-1H-cyclohepta[a]phenanthren-1-yl)-2-oxoethyl)-1H-pyrazole-4-carbonitrile] |  | < 100 nM | 
Cc1nnnn1CC(=O)[C@H]1CC[C@H]2[C@@H]3CC[C@H]4C[C@](C)(O)CC[C@@H]4[C@H]3CC[C@@H]21 [Example 76, 1-((3R,5S,8R,9R,10S,13S,14S,17S)-3-hydroxy-3-methylhexadecahydro-1H-cyclopenta[a]phenanthren-17-yl)-2-(5-methyl-1H-tetrazol-1-yl)ethanone] | > 1000 nM |  | 
CC[C@]12CC[C@@](C)(O)CC[C@H]1CC[C@H]1[C@@H]3CC[C@H](C(C)=O)[C@@]3(C)CC[C@@H]12 [Example 25, 1-((1S,3aS,3bS,5aR,8S,10aS,10bS,12aS)-10a-ethyl-8-hydroxy-8,12a-dimethyloctadecahydrocyclohepta[a]cyclopenta[f]naphthalen-1-yl)ethanone] |  | 100 to 1000 nM | 
Cc1nnn(CC(=O)[C@H]2CC[C@H]3[C@@H]4CC[C@@H]5C[C@](C)(O)CC[C@@H]5[C@H]4CC[C@@H]32)n1 [Example 69, 1-((3R,5R,8R,9R,10S,13S,14S,17S)-3-hydroxy-3-methylhexadecahydro-1H-cyclopenta[a]phenanthren-17-yl)-2-(5-methyl-2H-tetrazol-2-yl)ethan-1-one] | < 100 nM |  | 
CC(=O)[C@H]1CCC[C@H]2[C@@H]3CC[C@@H]4CC[C@](C)(O)CC[C@]4(C)[C@H]3CC[C@]12C [Example 53, 1-((1S,4aS,4bR,6aR,9S,11aS,11bS,13aS)-9-hydroxy-9,11a,13a-trimethyloctadecahydro-1H-cyclohepta[a]phenanthren-1-yl)ethanone] |  | > 1000 nM | 
C[C@@]1(O)CC[C@@]2(C3CC3)[C@H](CC[C@H]3[C@@H]4CCC[C@H](C(=O)Cn5cc(C#N)cn5)[C@@]4(C)CC[C@@H]32)C1 [Example 87, 1-(2-((1S,4aS,4bS,6aR,8R,10aR,10bS,12aS)-10a-cyclopropyl-8-hydroxy-8,12a-dimethyloctadecahydrochrysen-1-yl)-2-oxoethyl)-1H-pyrazole-4-carbonitrile] |  |  | IC50 (Table 6, 3 nM [35S]-TBPS, read-out: IC50): < 100 nM
CC[C@]1(O)CC[C@H]2CC[C@@H]3[C@H](CC[C@]4(C)[C@H](C(=O)Cn5cc(C#N)cn5)CCC[C@@H]34)[C@H]2CC1 [Example 48, 1-(2-((1R,4aS,4bR,6aR,9S,11aS,11bR,13aS)-9-ethyl-9-hydroxy-13a-methyloctadecahydro-1H-cyclohepta[a]phenanthren-1-yl)-2-oxoethyl)-1H-pyrazole-4-carbonitrile] |  | > 1000 nM | 
C[C@@]1(O)CC[C@H]2[C@H](CC[C@@H]3[C@@H]2CC[C@H]2[C@H]3CCC[C@@H]2C(=O)Cn2cc(C#N)cn2)C1 [Example 78, 1-(2-((1S,4aS,4bR,6aR,8R,10aS,10bR,12aS)-8-hydroxy-8-methyloctadecahydrochrysen-1-yl)-2-oxoethyl)-1H-pyrazole-4-carbonitrile] | < 100 nM |  | 
C[C@@]1(O)CC[C@H]2[C@H](CC[C@@H]3[C@@H]2CC[C@H]2[C@H]3CC[C@H]2C(=O)Cn2cc(C#N)cn2)C1 (stereo in doubt) [Example 71] | > 1000 nM |  | 
CC[C@@]1(O)CCC[C@@]2(C)[C@H](CC[C@@H]3[C@@H]2CC[C@]2(C)[C@H](C(=O)Cn4cc(C#N)cn4)CCC[C@@H]32)C1 [Example 39, 1-(2-((1R,4aS,4bR,6aR,8R,11aS,11bS,13aS)-8-ethyl-8-hydroxy-11a,13a-dimethyloctadecahydro-1H-cyclohepta[a]phenanthren-1-yl)-2-oxoethyl)-1H-pyrazole-4-carbonitrile] |  | > 1000 nM | 
C[C@]1(O)CC[C@H]2CC[C@@H]3[C@H](CC[C@]4(C)[C@@H](C(=O)Cn5cc(C#N)cn5)CCC[C@@H]34)[C@@]2(C)CC1 [Example 52, 1-(2-((1S,4aS,4bR,6aR,9S,11aS,11bS,13aS)-9-hydroxy-9,11a,13a-trimethyloctadecahydro-1H-cyclohepta[a]phenanthren-1-yl)-2-oxoethyl)-1H-pyrazole-4-carbonitrile] |  | 100 to 1000 nM | 
CC[C@@]1(O)CCC[C@@]2(C)[C@H](CC[C@@H]3[C@@H]2CC[C@]2(C)[C@@H](C(C)=O)CCC[C@@H]32)C1 [Example 37, 1-((1S,4aS,4bR,6aR,8R,11aS,11bS,13aS)-8-ethyl-8-hydroxy-11a,13a-dimethyloctadecahydro-1H-cyclohepta[a]phenanthren-1-yl)ethanone] |  | 100 to 1000 nM | 
Cc1nnnn1CC(=O)[C@H]1CCC[C@H]2[C@@H]3CC[C@H]4C[C@](C)(O)CC[C@@H]4[C@H]3CC[C@@H]21 [Example 81, 1-((1S,4aS,4bR,6aS,8R,10aS,10bR,12aS)-8-hydroxy-8-methyloctadecahydrochrysen-1-yl)-2-(5-methyl-1H-tetrazol-1-yl)ethanone] | < 100 nM |  | 
CC[C@]12CC[C@H]3[C@@H](CC=C4CC[C@](C)(O)CC[C@@]43C)[C@@H]1CC[C@@H]2C(C)=O [Example 34, 1-((1S,3aS,3bS,8S,10aR,10bS,12aS)-12a-ethyl-8-hydroxy-8,10a-dimethyl-1,2,3,3a,3b,4,6,7,8,9,10,10a,10b,11,12,12a-hexadecahydrocyclohepta[a]cyclopenta[f]naphthalen-1-yl)ethanone] |  | < 100 nM | 
CC[C@@]1(O)CCC[C@@]2(C)[C@H](CC[C@@H]3[C@@H]2CC[C@]2(C)[C@@H](C(=O)Cn4cc(C#N)cn4)CCC[C@@H]32)C1 [Example 38, 1-(2-((1S,4aS,4bR,6aR,8R,11aS,11bS,13aS)-8-ethyl-8-hydroxy-11a,13a-dimethyloctadecahydro-1H-cyclohepta[a]phenanthren-1-yl)-2-oxoethyl)-1H-pyrazole-4-carbonitrile] |  | 100 to 1000 nM | 

— US20260098053A1, “COMPOSITIONS AND METHODS FOR TREATING CNS DISORDERS” (SAGE THERAPEUTICS, INC., priority 2019, published 2026)
